Data taken from PubChem BioAssay (NCI).
“And” between values parts separate entries of the source, which are not always exact repeats. Equal entries are not always repeated.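 Method: 48-hour compound exposure of cells in 96-well plates, five concentrations, linear interpolation of endpoints. GI50 is the concentration that inhibits growth by half. TGI is the concentration that stops growth completely.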

Experiments:
Experiment in all cases: growth of human tumour cells (NCI), 48 h
MOLT-4 leukemia = system: MOLT-4 leukemia
K-562 leukemia = system: K-562 leukemia
MALME-3M melanoma = system: MALME-3M melanoma
SNB-75 CNS = system: SNB-75 CNS
HS 578T breast = system: HS 578T breast
786-0 renal = system: 786-0 renal
PC-3 prostate = system: PC-3 prostate
HOP-92 NSCLC = system: HOP-92 NSCLC
NCI-H23 lung = system: NCI-H23 lung
SF-268 CNS = system: SF-268 CNS
NCI-H226 lung = system: NCI-H226 lung
HOP-62 NSCLC = system: HOP-62 NSCLC
MDA-MB-435 = system: MDA-MB-435
HCT-15 colon = system: HCT-15 colon
SK-MEL-28 melanoma = system: SK-MEL-28 melanoma
SK-MEL-2 melanoma = system: SK-MEL-2 melanoma
SK-OV-3 ovarian = system: SK-OV-3 ovarian

| Compound | TGI (MOLT-4 leukemia) | TGI (K-562 leukemia) | TGI (MALME-3M melanoma) | TGI (SNB-75 CNS) [µM] | TGI (HS 578T breast) | TGI (786-0 renal) | TGI (PC-3 prostate) | TGI (HOP-92 NSCLC) | TGI (NCI-H23 lung) | TGI (SF-268 CNS) | TGI (NCI-H226 lung) | TGI (HOP-62 NSCLC) | TGI (MDA-MB-435) | TGI (HCT-15 colon) | TGI (SK-MEL-28 melanoma) | TGI (SK-MEL-2 melanoma) | TGI (SK-OV-3 ovarian) | GI50 (HOP-92 NSCLC) | GI50 (SK-MEL-28 melanoma) | GI50 (SK-OV-3 ovarian) |
| --- | --- | --- | --- | --- | --- | --- | --- | --- | --- | --- | --- | --- | --- | --- | --- | --- | --- | --- | --- | --- |
| Cn1c(=O)c2c(nc3n(C)c(=O)c4ccccc4n23)n(C)c1=O | 13.4 µM | > 100 µM | > 100 µM | > 93.5 | > 100 µM | > 100 µM | > 100 µM | > 100 µM | > 100 µM | > 100 µM | 58.7 µM | > 84.3 µM | > 100 µM | > 100 µM | > 100 µM | > 100 µM | > 100 µM |  |  |  |
| COc1cccc(C2c3cc4c(cc3OC(N3CCCCC3)C2C)OCO4)c1OC (stereo not drawn) | 30.4 µM | 20.7 µM | 39.4 µM | 66.7 | 29.5 µM | > 100 µM | 42.8 µM | 37.9 µM | 71.3 µM | 48.4 µM | 34.8 µM | 50.1 µM | 33.8 µM | 26.3 µM | 46.7 µM | 26 µM | > 100 µM |  |  |  |
| O=S(=O)(O)C(Cc1nc2ccccc2[nH]1)S(=O)(=O)OCCC1S(=O)(=O)OCCOS1(=O)=O (stereo not drawn) | > 100 µM | > 100 µM | > 100 µM | > 100 | > 100 µM | > 100 µM | > 100 µM | > 100 µM | > 100 µM | > 100 µM | > 100 µM | > 100 µM | > 100 µM | > 100 µM | > 100 µM | > 100 µM | > 100 µM |  |  |  |
| CCOC(=O)c1cc(C#N)[nH]c1-c1ccsc1 | 53.1 µM | 93 µM | 77.3 µM | 97.4 | 55.8 µM | > 100 µM | 70.4 µM | > 100 µM | > 100 µM | 57.1 µM | > 100 µM | > 100 µM | 51.9 µM | > 100 µM | > 100 µM | > 100 µM | > 100 µM |  |  |  |
| Cc1cn(C2CC(NC(=NCC3OC(n4cnc5c(N)ncnc54)CC3O)NC#N)C(CO)O2)c(=O)[nH]c1=O (stereo not drawn) | > 100 µM | > 100 µM | > 100 µM | > 100 | > 100 µM | > 100 µM | > 100 µM | > 100 µM | > 100 µM | > 100 µM | > 100 µM | > 100 µM | > 100 µM | > 100 µM | > 100 µM | > 100 µM | > 100 µM |  |  |  |
| Oc1cccc2c1[nH]c1c(C3=C[C@@]4(O)CC/C=C\CCCCN5CC[C@@H]3[C@]3(CC6/C=C\CCCCN6[C@H]34)C5)nccc12 (stereo partly drawn) | 4.95 µM | 2.01 µM | 3.02 µM | 3.86 | 3.69 µM | 1.86 µM | 3.87 µM | 1.3 µM | 2.56 µM | 6.15 µM | 5.17 µM | 1.85 µM | 2.17 µM | 1.86 µM | 3.73 µM | 2.97 µM | 5.15 µM |  |  |  |
| CC1=C[C@@H]2[C@@H](CC(CO)=C[C@H]3[C@@H]4C(C)(C)[C@]4(OCC(C)C)[C@H](OCC(C)C)[C@@H](C)[C@]23O)C1=O | 2.96 µM | > 4.86 µM | 2.36 µM | > 8.32 | 2.71 µM | > 6.54 µM | > 4.51 µM | > 5.57 µM | 5.81 µM | > 8.32 µM | > 4.53 µM | 2.8 µM | > 6.31 µM | 2.77 µM | 3.38 µM | > 6.43 µM | > 8.32 µM |  |  |  |
| CN1CCc2cc(N)cc3c2C1Cc1ccc2c(c1-3)OCO2 (stereo not drawn) | 35 µM | > 80 µM | 58.6 µM | > 91.5 | 82.2 µM | 99 µM | > 100 µM | 66.9 µM | > 100 µM | > 100 µM | 83.2 µM | > 100 µM | > 100 µM | > 100 µM | > 100 µM | > 100 µM | > 100 µM |  |  |  |
| O=c1c(=[n+]2ccc(=C([O-])c3ccccc3)cc2)/c(=N/S(=O)(=O)c2ccccc2)c(=O)c2ccccc12 | 14.8 µM | 9.98 µM | 16.9 µM | 27.7 | 18.7 µM | 19.5 µM | 23.6 µM | 21.1 µM | 12 µM | 25.7 µM | 30.8 µM | 22.7 µM | 3.1 µM | 28.2 µM | 8.8 µM | 8.63 µM | 29.2 µM |  |  |  |
| CN(C)CCCN1c2ccccc2CCc2cc([N+](=O)[O-])ccc21 | > 100 µM and 35.9 µM | > 100 µM and 38.6 µM | 33.8 µM and 32.9 µM | 26.4 | 71.9 µM and 34.3 µM | 66 µM and 28.9 µM | 76.8 µM and 34.3 µM | 58.1 µM and 22.6 µM | 54.1 µM and 36.7 µM | 52.5 µM and 28.8 µM | 68 µM and 32.6 µM | 48.6 µM and 30 µM | 48.4 µM and 31.1 µM | 83.3 µM and 37.4 µM | 80.9 µM and 28.2 µM | 39.4 µM and 38.8 µM | > 100 µM and 32.6 µM | 21.8 µM and 7.69 µM | 28.2 µM and 13.9 µM | 38.7 µM and 17.3 µM |
